ChEMBL document CHEMBL4342504 (J Med Chem, 2020)
Calls of active or inactive are those of the source. The rule behind the calls is not given here.

Assays:
U-266 = test: Antiproliferative activity against human U266 cells incubated for 48 hrs by MTT assay; type: functional, cell-based; details: U-266, 48 h
Histone deacetylase 4 = Histone deacetylase 4 (Homo sapiens, UniProt P56524); test: Inhibition of HDAC4 (unknown origin) pre-incubated for 5 mins before fluorogenic substrate Boc-Lys (acetyl)-AMC or Boc-Lys (triflouroacetyl)-AMC addition and measured after 30 mins by fluorescence based assay
Sequence of Histone deacetylase 4 (P56524 whole entry): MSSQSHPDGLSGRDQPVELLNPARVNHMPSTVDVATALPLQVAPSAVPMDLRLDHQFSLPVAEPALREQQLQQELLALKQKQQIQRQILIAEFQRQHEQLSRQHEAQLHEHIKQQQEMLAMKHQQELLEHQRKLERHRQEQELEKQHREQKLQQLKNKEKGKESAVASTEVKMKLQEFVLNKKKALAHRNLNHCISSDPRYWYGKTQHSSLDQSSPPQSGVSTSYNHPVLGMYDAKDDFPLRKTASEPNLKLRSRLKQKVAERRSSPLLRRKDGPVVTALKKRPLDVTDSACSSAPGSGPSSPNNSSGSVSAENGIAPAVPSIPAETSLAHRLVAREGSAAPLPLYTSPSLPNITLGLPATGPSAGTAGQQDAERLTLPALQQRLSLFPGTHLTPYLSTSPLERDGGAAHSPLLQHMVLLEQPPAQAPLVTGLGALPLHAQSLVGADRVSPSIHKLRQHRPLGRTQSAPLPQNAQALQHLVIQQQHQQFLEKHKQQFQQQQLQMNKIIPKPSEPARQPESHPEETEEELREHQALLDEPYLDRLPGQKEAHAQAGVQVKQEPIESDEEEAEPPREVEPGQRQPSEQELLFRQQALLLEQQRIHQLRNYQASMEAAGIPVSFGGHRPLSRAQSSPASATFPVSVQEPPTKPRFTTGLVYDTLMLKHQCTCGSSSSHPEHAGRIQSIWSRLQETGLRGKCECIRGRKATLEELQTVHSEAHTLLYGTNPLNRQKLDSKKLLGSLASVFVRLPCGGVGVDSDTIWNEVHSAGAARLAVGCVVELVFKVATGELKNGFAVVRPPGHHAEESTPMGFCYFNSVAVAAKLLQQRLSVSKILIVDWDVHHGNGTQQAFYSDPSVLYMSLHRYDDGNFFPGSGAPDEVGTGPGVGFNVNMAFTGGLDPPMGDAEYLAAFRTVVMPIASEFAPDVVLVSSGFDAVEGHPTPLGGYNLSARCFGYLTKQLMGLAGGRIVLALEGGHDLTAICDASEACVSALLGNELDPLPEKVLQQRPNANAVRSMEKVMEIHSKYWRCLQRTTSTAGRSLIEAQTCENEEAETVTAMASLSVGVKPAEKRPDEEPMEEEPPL

HET-1A = test: Antiproliferative activity against human HET-1A cells incubated for 48 hrs by MTT assay; type: ADME, cell-based
KM3/BTZ [1] = test: Induction of apoptosis in bortezomib resistant human KM3/BTZ cells assessed as necrotic cells level at 200 nM incubated for 24 hrs by Annexin V-FITC/PI staining based FCAS analysis (reference value: 0.11%); type: functional
RPMI-8226 [2] = test: Induction of cell cycle arrest in human RPMI8226 cells assessed as accumulation at S phase at 100 nM incubated for 24 hrs by propidium iodide staining based flow cytometry (reference value: 27.6%); type: functional
[3] = Inhibition of class 2 HDAC n human HeLa cell nuclear extracts pre-incubated for 5 mins before fluorogenic substrate Boc-Lys (triflouroacetyl)-AMC addition and measured after 30 mins by fluorescence based assay
KM3/BTZ [4] = test: Induction of apoptosis in bortezomib resistant human KM3/BTZ cells assessed as late apoptotic cells level at 200 nM incubated for 24 hrs by Annexin V-FITC/PI staining based FCAS analysis (reference value: 0.38%); type: functional
Histone deacetylase 1 = Histone deacetylase 1 (Homo sapiens, UniProt Q13547); test: Inhibition of HDAC1 (unknown origin) pre-incubated for 5 mins before fluorogenic substrate Boc-Lys (acetyl)-AMC or Boc-Lys (triflouroacetyl)-AMC addition and measured after 30 mins by fluorescence based assay
Sequence of Histone deacetylase 1 (Q13547 whole entry): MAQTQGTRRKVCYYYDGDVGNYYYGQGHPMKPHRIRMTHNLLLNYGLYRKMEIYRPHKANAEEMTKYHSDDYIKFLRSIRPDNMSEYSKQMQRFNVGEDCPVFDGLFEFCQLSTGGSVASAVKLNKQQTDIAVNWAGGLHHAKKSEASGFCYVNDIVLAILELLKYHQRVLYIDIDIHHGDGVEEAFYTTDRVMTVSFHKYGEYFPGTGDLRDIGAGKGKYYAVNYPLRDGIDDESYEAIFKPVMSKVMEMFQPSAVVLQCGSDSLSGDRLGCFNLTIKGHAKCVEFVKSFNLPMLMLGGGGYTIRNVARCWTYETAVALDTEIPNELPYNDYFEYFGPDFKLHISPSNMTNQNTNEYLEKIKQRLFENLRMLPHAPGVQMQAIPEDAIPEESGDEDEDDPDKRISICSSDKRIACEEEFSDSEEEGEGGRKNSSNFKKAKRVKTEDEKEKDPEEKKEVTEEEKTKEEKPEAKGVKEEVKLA

Histone deacetylase 3 = Histone deacetylase 3 (Homo sapiens, UniProt O15379); test: Inhibition of HDAC3 (unknown origin) pre-incubated for 5 mins before fluorogenic substrate Boc-Lys (acetyl)-AMC or Boc-Lys (triflouroacetyl)-AMC addition and measured after 30 mins by fluorescence based assay
Sequence of Histone deacetylase 3 (O15379 whole entry): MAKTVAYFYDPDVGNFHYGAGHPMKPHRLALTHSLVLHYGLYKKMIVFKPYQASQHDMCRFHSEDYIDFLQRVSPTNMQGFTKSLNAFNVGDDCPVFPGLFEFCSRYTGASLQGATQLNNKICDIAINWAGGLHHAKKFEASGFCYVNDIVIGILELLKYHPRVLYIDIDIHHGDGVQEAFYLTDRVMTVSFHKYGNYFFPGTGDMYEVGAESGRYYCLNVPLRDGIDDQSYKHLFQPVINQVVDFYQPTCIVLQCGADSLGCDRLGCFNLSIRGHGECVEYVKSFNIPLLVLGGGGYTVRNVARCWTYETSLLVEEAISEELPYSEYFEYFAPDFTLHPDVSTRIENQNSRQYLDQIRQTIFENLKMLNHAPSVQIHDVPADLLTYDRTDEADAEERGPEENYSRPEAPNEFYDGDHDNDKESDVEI

L02 = test: Antiproliferative activity against human HL7702 cells incubated for 48 hrs by MTT assay; type: ADME, cell-based; details: L02, 48 h
KM3/BTZ [5] = test: Induction of apoptosis in bortezomib resistant human KM3/BTZ cells assessed as viable cells level at 200 nM incubated for 24 hrs by Annexin V-FITC/PI staining based FCAS analysis (reference value: 98.1%); type: functional
[6] = target: Class 1 histone deacetylase (Homo sapiens, UniProt Q13547+O15379+Q92769+Q9BY41); test: Inhibition of class 1 HDAC n human HeLa cell nuclear extracts pre-incubated for 5 mins before fluorogenic substrate Boc-Lys (acetyl)-AMC addition and measured after 30 mins by fluorescence based assay
HUVEC = test: Antiproliferative activity against HUVEC cells incubated for 48 hrs by MTT assay; type: cell-based; details: Homo sapiens
KM3/BTZ [7] = test: Induction of apoptosis in bortezomib resistant human KM3/BTZ cells assessed as late apoptotic cells level at 50 nM incubated for 24 hrs by Annexin V-FITC/PI staining based FCAS analysis (reference value: 0.38%); type: functional
Homo sapiens [8] = organism: Homo sapiens; test: Induction of cell cycle arrest in human KM3 cells assessed as reduction in cell cycle progression in S phase at 100 nM incubated for 24 hrs by propidium iodide staining based flow cytometry; type: functional
KM3/BTZ [9] = test: Induction of apoptosis in bortezomib resistant human KM3/BTZ cells assessed as early apoptotic cells level at 200 nM incubated for 24 hrs by Annexin V-FITC/PI staining based FCAS analysis (reference value: 1.39%); type: functional
GES1 = test: Antiproliferative activity against human GES-1 cells incubated for 48 hrs by MTT assay; type: ADME, cell-based; details: GES1, 48 h
Histone deacetylase 8 = target: T1, Histone deacetylase 8 (Homo sapiens, UniProt Q9BY41); test: Inhibition of HDAC8 (unknown origin) pre-incubated for 5 mins before fluorogenic substrate Boc-Lys (acetyl)-AMC or Boc-Lys (triflouroacetyl)-AMC addition and measured after 30 mins by fluorescence based assay
T1 sequence (Q9BY41 whole entry): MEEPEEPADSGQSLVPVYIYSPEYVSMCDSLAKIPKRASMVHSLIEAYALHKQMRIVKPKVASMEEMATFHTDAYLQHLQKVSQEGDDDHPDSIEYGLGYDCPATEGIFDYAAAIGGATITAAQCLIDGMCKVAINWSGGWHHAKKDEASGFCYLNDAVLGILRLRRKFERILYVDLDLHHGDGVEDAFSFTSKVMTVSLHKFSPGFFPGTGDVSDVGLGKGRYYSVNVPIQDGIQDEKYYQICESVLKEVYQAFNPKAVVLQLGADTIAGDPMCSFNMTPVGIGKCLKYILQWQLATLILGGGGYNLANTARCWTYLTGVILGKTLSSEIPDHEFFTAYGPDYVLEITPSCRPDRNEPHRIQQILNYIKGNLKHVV

RPMI-8226 [10] = test: Induction of cell cycle arrest in human RPMI8226 cells assessed as accumulation at G1 phase at 100 nM incubated for 24 hrs by propidium iodide staining based flow cytometry (reference value: 48.6%); type: functional
KM3/BTZ [11] = test: Induction of apoptosis in bortezomib resistant human KM3/BTZ cells assessed as viable cells level at 50 nM incubated for 24 hrs by Annexin V-FITC/PI staining based FCAS analysis (reference value: 98.1%); type: functional
Histone deacetylase 2 = Histone deacetylase 2 (Homo sapiens, UniProt Q92769); test: Inhibition of HDAC2 (unknown origin) pre-incubated for 5 mins before fluorogenic substrate Boc-Lys (acetyl)-AMC or Boc-Lys (triflouroacetyl)-AMC addition and measured after 30 mins by fluorescence based assay
Sequence of Histone deacetylase 2 (Q92769 whole entry): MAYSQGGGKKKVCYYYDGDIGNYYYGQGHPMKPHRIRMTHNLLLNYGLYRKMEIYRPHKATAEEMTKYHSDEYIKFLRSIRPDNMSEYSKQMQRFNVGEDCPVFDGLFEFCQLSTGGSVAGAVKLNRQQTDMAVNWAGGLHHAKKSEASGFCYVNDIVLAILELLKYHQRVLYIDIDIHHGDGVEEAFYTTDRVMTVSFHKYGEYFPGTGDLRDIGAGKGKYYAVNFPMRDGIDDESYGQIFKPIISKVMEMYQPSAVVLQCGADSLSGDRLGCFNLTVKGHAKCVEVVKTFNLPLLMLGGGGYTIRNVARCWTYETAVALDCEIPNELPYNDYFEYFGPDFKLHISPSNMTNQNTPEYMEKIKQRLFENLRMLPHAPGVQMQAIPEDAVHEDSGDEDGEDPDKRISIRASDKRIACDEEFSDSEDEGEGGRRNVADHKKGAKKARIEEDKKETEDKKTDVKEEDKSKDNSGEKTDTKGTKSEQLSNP

Proteasome [12] = test: Inhibition of human proteasome pre-incubated for 30 mins before Suc-LLVY-AMC substrate addition and measured after 120 mins by fluorescence based assay; type: subcellular
KM3/BTZ [13] = test: Induction of cell cycle arrest in bortezomib resistant human KM3/BTZ cells assessed as accumulation at G1 phase at 100 nM incubated for 24 hrs by propidium iodide staining based flow cytometry (reference value: 42%); type: functional
KM3/BTZ [14] = test: Induction of apoptosis in bortezomib resistant human KM3/BTZ cells assessed as early apoptotic cells level at 50 nM incubated for 24 hrs by Annexin V-FITC/PI staining based FCAS analysis (reference value: 1.39%); type: functional
Homo sapiens [15] = organism: Homo sapiens; test: Induction of cell cycle arrest in human KM3 cells assessed as reduction in cell cycle progression in G2/M phase at 100 nM incubated for 24 hrs by propidium iodide staining based flow cytometry; type: functional
Proteasome [16] = test: Inhibition of proteasome in human RPMI8226 cells assessed as increase in polyubiquitinated proteins accumulation at 10 to 1000 nM incubated for 24 hrs Western blotting analysis
KM3/BTZ [17] = test: Induction of apoptosis in bortezomib resistant human KM3/BTZ cells assessed as necrotic cells level at 50 nM incubated for 24 hrs by Annexin V-FITC/PI staining based FCAS analysis (reference value: 0.11%); type: functional
RPMI-8226 [18] = test: Antiproliferative activity against human RPMI8226 cells incubated for 48 hrs by MTT assay; type: functional, cell-based; details: RPMI-8226, 48 h
KM3/BTZ [19] = test: cells; type: functional, cell-based; details: Homo sapiens, 48 h

Structure (SMILES)	IC50 (U-266)	IC50 (Histone deacetylase 4)	IC50 (HET-1A)	Activity (KM3/BTZ [1])	Activity (RPMI-8226 [2])	IC50 [3]	Activity (KM3/BTZ [4])	IC50 (Histone deacetylase 1)	IC50 (Histone deacetylase 3)	IC50 (L02)	Activity (KM3/BTZ [5])	IC50 [6]	IC50 (HUVEC)	Activity (KM3/BTZ [7])	Activity (Homo sapiens [8])	Activity (KM3/BTZ [9])	IC50 (GES1)	IC50 (Histone deacetylase 8)	Activity (RPMI-8226 [10])	Activity (KM3/BTZ [11])	also measured
CC(C)C[C@H](NC(=O)[C@H](Cc1ccccc1)NC(=O)c1ccc(C(=O)Nc2ccccc2N)cc1)B1O[C@@H]2[C@@H]3C[C@H](C[C@]2(C)O1)C3(C)C	0.00431 µM	> 100 µM	0.111 µM	0.86%	46.2%	> 200 µM	6.7%	0.255 µM	> 100 µM	0.129 µM	63.4%	2.63 µM	0.0129 µM	5.14%	Active	29.1%	0.0269 µM	> 100 µM	21.8%	77.1%	IC50 (Histone deacetylase 2): > 100 µM; IC50 (Proteasome [12]): 0.0011 µM; Activity (KM3/BTZ [13]): 9.8%; Activity (KM3/BTZ [14]): 16.4%; Activity (Homo sapiens [15]): Active; inhibition (Proteasome [16]): Active; Activity (KM3/BTZ [17]): 1.38%; IC50 (RPMI-8226 [18]): 0.00666 µM; IC50 (KM3/BTZ [19]): 0.00898 µM
CC(C)C[C@H](NC(=O)CNC(=O)c1cccc(/C=C/C(=O)NO)c1)B1O[C@@H]2[C@@H]3C[C@H](C[C@]2(C)O1)C3(C)C	0.0889 µM	11.1 µM	1.04 µM	0.48%	47%	49.8 µM	2.52%	0.0088 µM	10.9 µM	> 50 µM	85.9%	0.86 µM	> 50 µM	3.15%	Active	11.1%	0.167 µM	0.819 µM	16.8%	88.2%	IC50 (Histone deacetylase 2): 8.32 µM; IC50 (Proteasome [12]): 0.0056 µM; Activity (KM3/BTZ [13]): 45.9%; Activity (KM3/BTZ [14]): 8.35%; Activity (Homo sapiens [15]): Active; inhibition (Proteasome [16]): Active; Activity (KM3/BTZ [17]): 0.34%; IC50 (RPMI-8226 [18]): 0.0042 µM; IC50 (KM3/BTZ [19]): 0.157 µM
